Test results: patent US10646483B2, “Crystal form of imidazolone type compounds, and preparation method, pharmaceutical composition and use thereof” (Foreland Pharma Co., Ltd., priority 2016, dated 2020)
Read-outs that look alike come from different tables or passages of the source. Blank lines part the entries; values can stand above or below the molecule they belong to.

How the values were obtained:
[1] = Metabolic experiments after oral (intragastric) administration to SD rats; format: in vivo; details: 10 mg/kg; for AUC(0-inf) / AUC(0-t) / MRT / Tmax / Cmax / half-life: rat, po
Description: 11.392 mg of Crystal Form I of Compound 1 hydrochloride was suspended in […] of 0.5% sodium carboxymethylcellulose, mixed to form a homogenous suspension, and then sonicated for 2 min to give a homogenous suspension having a concentration of 2 mg/mL (the suspension present was prepared on the day of administration, and stored for no more than 4 hours). Three SD rats were intragastrically administered at a dose of 10 mg/kg body weight, and blood analysis was performed at the set time points.

[2] = Solid stability test of Crystal Form I (drug stability test box: high temperature, high humidity, strong illumination); format: physicochemical
Source text: A small amount of Crystal Form I of Compound 1 hydrochloride monohydrate of Example I-1 was taken and placed in a drug stability test box. The conditions were controlled as listed in Table 1 for the stability test. The results of the purities and the contents are listed in Table I-1, and the results of the crystal form tests are shown in FIGS. 4 to 6.

[3] = Test of dissolution rate in distilled water; format: physicochemical; details: 3 mg in 1 ml distilled water, shaken at 20-25° C. for 5 seconds
Description: 3 mg each of Crystal Form VII, Crystal Form I, and Crystal Form VI, were weighed, and put into three 1 ml plastic centrifuge tubes, respectively. To each tube was added 1 ml of distilled water and shaken at 20-25° C. for 5 seconds.

[4] = Tableting stability test (XRPD before and after tableting); format: physicochemical; details: manually tableted, 8 mm tablets, ground, FIG. 7
Source text: A small amount of Crystal Form I of Compound 1 hydrochloride monohydrate of Example 1 was taken and manually tableted to tablets with a diameter of 8 mm. The tablets were then gently ground. […] The XRPD patterns of the powders before and after the tableting of Crystal Form I were compared.

[5] = SD (Sprague-Dawley), blood, SD rat, Rat 1
[6] = SD (Sprague-Dawley), blood, SD rat, Rat 2
[7] = SD (Sprague-Dawley), blood, SD rats, Average of three rats
[8] = Active Pharmaceutical Ingredient, Initial
[9] = Illumination (4500 Lx ± 500 Lx), Day 5
[10] = Illumination (4500 Lx ± 500 Lx), Day 10
[11] = high temperature, high humidity and strong illumination, up to Day 10

- AUC(0-inf) [1, 5]: 247 µg·h/mL
- AUC(0-t) [1, 5]: 235 µg·h/mL
- MRT [1, 5]: 6.74 h
- Tmax [1, 5]: 2.8 h
- Cmax ([1]; SD (Sprague-Dawley), blood, SD rat, Rat 1, read-out: Cmax): 19000 ng/mL
- AUC(0-inf) [1, 6]: 192 µg·h/mL
- AUC(0-t) [1, 6]: 183 µg·h/mL
- MRT [1, 6]: 7.13 h
- Tmax [1, 6]: 4 h
- Cmax ([1]; SD (Sprague-Dawley), blood, SD rat, Rat 2, read-out: Cmax): 12100 ng/mL
- half-life ([1]; SD (Sprague-Dawley), blood, SD rat, Rat 2, read-out: t½ (converted)): 324 min
- half-life ([1]; SD (Sprague-Dawley), blood, SD rat, suspension in 0.5% sodium carboxymethylcellulose, Rat 1, read-out: t½ (converted)): 317 min
- AUC(0-inf) [1, 7]: 201 µg·h/mL
- AUC(0-t) [1, 7]: 191 µg·h/mL
- MRT [1, 7]: 6.84 h
- AUC Extr ([1]; SD rat, Rat 1): 4.72%
- AUC/D ([1]; SD rat, Rat 1): 11758 ng·kg·h/mg/mL
- AUC Extr ([1]; SD rat, Rat 2): 4.70%
- AUC/D ([1]; SD rat, Rat 2): 9171 ng·kg·h/mg/mL
- AUC Extr ([1]; SD rat, Rat 3): 5.96%
- AUC/D ([1]; SD rat, Rat 3): 7675 ng·kg·h/mg/mL
- AUC Extr ([1]; SD rats, Average of three rats): 5.13%
- AUC/D ([1]; SD rats, Average of three rats): 9535 ng·kg·h/mg/mL
- AUC(0-inf) ([1]; SD, plasma, SD rat, Rat 3): 163 µg·h/mL
- AUC(0-t) ([1]; SD, plasma, SD rat, Rat 3): 154 µg·h/mL
- MRT ([1]; SD, plasma, SD rat, Rat 3): 6.65 h
- Tmax ([1]; SD, plasma, SD rat, Rat 3): 2.5 h
- Cmax ([1]; SD, plasma, SD rat, Rat 3, read-out: Cmax): 12700 ng/mL
- half-life ([1]; SD, plasma, SD rat, Rat 3, read-out: t½ (converted)): 349 min
- Tmax ([1]; SD, plasma, SD rats, Average of three rats): 3.1 h
- Cmax ([1]; SD, plasma, SD rats, Average of three rats, read-out: Cmax): 14600 ng/mL
- half-life ([1]; SD, plasma, SD rats, Average of three rats, read-out: t½ (converted)): 330 min
- AUC(0-t) ([1]; SD, plasma, SD rats, average value): 191 µg·h/mL
- half-life ([1]; SD, plasma, SD rats, average value, read-out: half-life (converted)): 330 min
- Cmax ([1]; SD, plasma, SD rats, average value, read-out: maximum plasma concentration (Cmax)): 14600 ng/mL
- Content % ([2]; 25° C./95% RH, Day 5): 100.86%
- Impurity % ([2]; 25° C./95% RH, Day 5): 0.72%
- Purity % ([2]; 25° C./95% RH, Day 5): 99.28%
- Content % ([2]; 25° C./95% RH, Day 10): 99.61%
- Impurity % ([2]; 25° C./95% RH, Day 10): 0.74%
- Purity % ([2]; 25° C./95% RH, Day 10): 99.26%
- Content % ([2]; 60° C., Day 5): 99.62%
- Impurity % ([2]; 60° C., Day 5): 0.73%
- Purity % ([2]; 60° C., Day 5): 99.27%
- Content % ([2]; 60° C., Day 10): 99.51%
- Impurity % ([2]; 60° C., Day 10): 0.79%
- Purity % ([2]; 60° C., Day 10): 99.21%
- Content % [2, 8]: 100.41%
- Impurity % [2, 8]: 0.74%
- Purity % [2, 8]: 99.26%
- Content % [2, 9]: 99.84%
- Impurity % [2, 9]: 0.93%
- Purity % [2, 9]: 99.07%
- Content % [2, 10]: 99.50%
- Impurity % [2, 10]: 0.87%
- Purity % [2, 10]: 99.13%
- crystal form (XRPD) after stability test ([2]; high temperature, high humidity and strong illumination (FIGS. 4 to 6)): remains unchanged
- fluctuation of the content [2, 11]: ≤ 1%
- fluctuation of the purity [2, 11]: ≤ 0.2%
- time to dissolve completely [3]: 5 h
- time to dissolve substantially [3]: 2 h
- effect of tableting process on crystal form (XRPD) [4]: did not change
SMILES: Cn1cc(-c2ccc(-c3ccc4ncc5c(c4c3)n([C@H]3CC[C@@H](O)CC3)c(=O)n5C)cn2)cn1 [Crystal Form I, 1-((1s,4s)-4-hydroxycyclohexyl)-3-methyl-8-(6-(1-methyl-1H-pyrazol-4-yl)pyridin-3-yl)-1H-imidazo[4,5-c]quinoline-2(3H)-one]

- time to dissolve completely [3]: > 5 h
SMILES: Cn1cc(-c2ccc(-c3ccc4ncc5c(c4c3)n([C@H]3CC[C@@H](O)CC3)c(=O)n5C)cn2)cn1 [Crystal Form VI, 1-((1s,4s)-4-hydroxycyclohexyl)-3-methyl-8-(6-(1-methyl-1H-pyrazol-4-yl)pyridin-3-yl)-1H-imidazo[4,5-c]quinoline-2(3H)-one]

- time to dissolve completely [3]: ≤ 0.00278 h
SMILES: Cn1cc(-c2ccc(-c3ccc4ncc5c(c4c3)n([C@H]3CC[C@@H](O)CC3)c(=O)n5C)cn2)cn1 [Crystal Form VII, 1-((1s,4s)-4-hydroxycyclohexyl)-3-methyl-8-(6-(1-methyl-1H-pyrazol-4-yl)pyridin-3-yl)-1H-imidazo[4,5-c]quinoline-2(3H)-one]
